Measured values reported in patent US20160038563A1, “MOLECULAR TARGETS FOR HEALING OR TREATING WOUNDS” (University College Cardiff Consultants Limited, priority 2010, published 2016).
Entries after “also recorded” stand apart in the source; their conditions may differ.

How the values were obtained:
[1] = test system: HECV cells; experiment: endothelial tubule forming assay, HECV wild type (negative for nWASP); type: cell-based, human; conditions: HECV cells negative for nWASP expression
[2] = tolerance in db/db strain; type: in vivo, db/db mice; conditions: administered systemically (IP), efficacy study
Procedure: (§1) First, the main tolerance tests were conducted using the CD-1 athymic mice (Charles River Laboratories), owing to their slow and steady rate of growth and easier to observe changes in the skin (hairless) and other possible side effects. Briefly, CD-1 of 4-6 weeks old, 20 g in weight, were housed in filter topped cages. […] Both compounds were given at […] final concentration in 100 ul in volume. […] CD-1 were observed daily, weighed twice weekly. An additional tolerance and efficacy test was carried out using the db/db strain.
(§2) The diabetic strain of db/db was obtained from Harlan. 4-6 weeks old with body weight at 20 g were used. […] Briefly, after being housed for a week, the db/db mice were first ear-pieced using an ear puncher, in order to create a wound (hole) of 1 mm in diameter. The following day after wound creation, all the db/db were weighed, wound photographed using a digital camera. Treatment was given systemically (by IP injection) or topically (by manually applying the compounds in gel into the wound area). Both treatments were given every other day. Images were obtained weekly. The size of the wounds was determined using an image analysis software. Data are given in two ways:
Wiskostatin was first dissolved in DMSO at concentration of 5 mg/ml. The DMSO solution was then gradually diluted in BSS in order to avoid precipitation. […]

[3] = in vivo tolerance test in CD-1 athymic mice; conditions: intraperitoneal, daily, 1 and 10 uM, two weeks
Procedure: as §1

[4] = test system: HaCaT cells; experiment: ECIS cell migration assay (electric wounding) and micromotion; type: cell-based, human; conditions: for resistance following wounding (migration): measured at 400 Hz; for cell migration of transfected HaCaT cells: vs wild type HaCaT, electric wounding, ECIS
Description: • 1. Cells and Human keratinocytes and melanoma Cells (HaCaT-from The German Cancer Institute/Cell Service, Germany and A431—from ATCC), human vascular endothelial cell, HECV (from Interlab, Italy) were used. Recombinant human HGF was from the research laboratory. nWASP inhibitors, Wiskostatin and 187-1 were from Merck Pharmaceuticals and TOCRIS, respectively. Tissue collection and preparation of RNA/cDNA bank from human wound/skin tissues. Fresh tissues from abnormal/chronic wounds (n=14), acute wounds (n=10) and normal skin from healthy volunteers (n=10) were collected under an approval from the local ethical committee (Ethical approval ID: 05/WSE03/92) and stored in −80° C. until use. Written informed consent was obtained from each patient who agreed for a biopsy to be taken. Tissues were frozen sectioned on a cryostat (Leica). A portion of the sections were kept for histological analysis. Approximate 20 sections were pooled and homogenised using a hand-held homogenizer using a procedure to extract RNA from the tissues. RNA extracted from the tissues was quantified and cDNA was subsequently generated using a RT kit. Abnormal/chronic wound tissues were from patients with abnormal/chronic leg ulcers. Acute wound tissues were obtained from patients with acute surgical wounds after undergoing excision of pilonidal disease. Normal tissues were from normal volunteer's normal skin. • 2. Analysis of nWASP gene transcripts was carried out using conventional and quantitative real time PCR (Icycler IQ, Bio-Rad) on human wound and skin tissues and cells. For conventional PCR, primers used were: NWASPF8 (5′agtccctatcactttcctc′3) (SEQ ID NO 1) and NWASPR8 (5′[…]′3) (SEQ ID NO 2) and NWASPF9 (5′[…]′3) (SEQ ID NO 3) and NWASPR9 (5′[…]′3) (SEQ ID NO 4). For Q-PCR primers used were nWASPF1 and NWASPZR1 (5′[…]′3) (SEQ ID NO 5) and (5′[…]′3) (SEQ ID NO 6). • 3. The study adopted the Ampliflor quantitation technology, in which one set of gene specific primers and a Uniprimer probes were used, in combination with quantitative PCR master mix. The reaction was carried out using ICycler^IQ (Bio-Rad). An internal standard was employed for quantitation purpose. In all the assays, GAPDH and actin were amplified and used as the house keeping controls. Levels of a specific gene was normalised to the expression level of GAPDH in the respective sample for example, nWASP, GAPDH and actin transcripts (mRNA) were measure in the same sample. nWASP was then normalised to GAPDH. • 4. Evaluation of cells response to wound stress after n-WASP is targeted. Here, an in vitro cell model, based on the ECIS system, was adopted. Briefly, cells were allowed to sit in the electric arrays and an 8E10 format was used. Cells in fixed number and fixed volume of culture medium were added into each of the respective wells, which had either control medium or a specific inhibitor to N-WASP, namely Wiskostatin or 187-1. In selected wells, a cell migration inducer, HGF was also included in the absence or presence of the nWASP inhibitors. Cells were investigated for the following functions: the adhesiveness to the matrix surface and the migration capacity. The first was recorded immediately after plating of the cells into each well at 3 frequencies: 400 Hz, 4,000 Hz, and 40,000 Hz. The frequencies were chosen following a frequency scanning (FIG. 3). Two main cell functions were thus tested here: the adhesiveness of the cells to matrix and cell migration. • 5. Creation of cell models. We have created a new cell model, based on a human keratinocyte cell line, HaCaT, which expressed high levels of n-WASP. By using anti-nWASP transgenes, we successfully knocked out the expression of n-WASP from the cells and subsequently used the cells in our testing. Briefly, the secondary structure (FIG. 2) of human nWASP was generated using Zuker's RNA mFold software. Three suitable sites for targeting within the nWASP mRNA were identified. […]

[5] = test system: wound in db/db mice; experiment: in vivo efficacy test, wound healing (ear punch wound); conditions: for size of wounds vs control: after three weeks
Description: as §2
1. the area of the wounds in pixels. Two sample student t test was used for statistical analysis. 2. change of the size of wound over the starting point calculated using: (area at a given point—area at the starting point)/(area of the starting point)×100. Bonferroni model was used for data analysis.
Wiskostatin was first dissolved in DMSO at concentration of 5 mg/ml. The DMSO solution was then gradually diluted in BSS in order to avoid precipitation. The solutions were prepared such that each 100 ul contained the correct amount of compounds and was aliquatted and stored at −20° C. until used. The compounds were injected every other day by the IP route. […] Treatment was given every other working day (Monday, Wednesday and Friday) and the images obtained on Wednesday.
For topical application, we used two conventional carrier gels (purchased from Pharmacy of University Hospital of Wales) that are currently used in wound care. […] For use, a small amount (150 ul) of the gel was applied to the wound area and gently rubbed in using fingers. Treatment was given every other working day (Monday, Wednesday and Friday) and the images obtained on Wednesday.

[6] = test system: HaCaT cells; experiment: growth of HaCaT cells; type: cell-based, human
[7] = test system: HaCaT cells; experiment: ECIS cell adhesion assay; type: cell-based, human
Description: (§3) • 1. Cells and Human keratinocytes and melanoma Cells (HaCaT-from The German Cancer Institute/Cell Service, Germany and A431—from ATCC), human vascular endothelial cell, HECV (from Interlab, Italy) were used. Recombinant human HGF was from the research laboratory. nWASP inhibitors, Wiskostatin and 187-1 were from Merck Pharmaceuticals and TOCRIS, respectively. Tissue collection and preparation of RNA/cDNA bank from human wound/skin tissues. Fresh tissues from abnormal/chronic wounds (n=14), acute wounds (n=10) and normal skin from healthy volunteers (n=10) were collected under an approval from the local ethical committee (Ethical approval ID: 05/WSE03/92) and stored in −80° C. until use. Written informed consent was obtained from each patient who agreed for a biopsy to be taken. Tissues were frozen sectioned on a cryostat (Leica). A portion of the sections were kept for histological analysis. Approximate 20 sections were pooled and homogenised using a hand-held homogenizer using a procedure to extract RNA from the tissues. RNA extracted from the tissues was quantified and cDNA was subsequently generated using a RT kit. Abnormal/chronic wound tissues were from patients with abnormal/chronic leg ulcers. Acute wound tissues were obtained from patients with acute surgical wounds after undergoing excision of pilonidal disease. Normal tissues were from normal volunteer's normal skin. • 2. Analysis of nWASP gene transcripts was carried out using conventional and quantitative real time PCR (Icycler IQ, Bio-Rad) on human wound and skin tissues and cells. […] The study adopted the Ampliflor quantitation technology, in which one set of gene specific primers and a Uniprimer probes were used, in combination with quantitative PCR master mix. […] An internal standard was employed for quantitation purpose. […] The first was recorded immediately after plating of the cells into each well at 3 frequencies: 400 Hz, 4,000 Hz, and 40,000 Hz. […]

[8] = test system: HECV cells transfected and forced to express nWASP; experiment: endothelial tubule forming assay, HECV forced to express nWASP; type: cell-based, human; conditions: nWASP expressing HECV cells, after 48 hours
[9] = test system: nWASP mRNA; experiment: knock down of nWASP mRNA in HaCaT cells by anti-nWASP transgenes (RT-PCR); type: cell-based, human; conditions: HaCaT cells after transfection (electroporation)
Description: as §3, with “Written informed consent was obtained from each patient who agreed for a biopsy to be taken. Tissues were frozen sectioned on a cryostat (Leica). A portion of the sections were kept for histological analysis. Approximate 20 sections were pooled and homogenised using a hand-held homogenizer using a procedure to extract RNA from the tissues.” left out, “Abnormal/chronic wound tissues were from patients with abnormal/chronic leg ulcers. Acute wound tissues were obtained from patients with acute surgical wounds after undergoing excision of pilonidal disease. Normal tissues were from normal volunteer's normal skin. • 2.” left out

## CN(C)C[C@H](O)Cn1c2ccc(Br)cc2c2cc(Br)ccc21 (racemic) [Wiskostatin]
[1]
  tubule formation: neither 187-1 nor Wiskostatin had a major impact
[2]
  side effects: without Producing any Side Effects
[3]
  tolerability: Well Tolerated
[4]; 1 nM
  resistance following wounding (migration): rapid rise of resistance
[4]; 10 nM
  resistance following wounding (migration): rapid rise of resistance
[4]; electric wounding assay
  migration of HaCaT cells: Increased the Migration
[5]; Wiskostatin systemic 1 μM, p=0.017
  size of wounds vs control: significantly reduced the size of the wounds; also recorded: significant reduction of the size of wound
[5]; Wiskostatin systemic 10 μM, p=0.04
  size of wounds vs control: significantly reduced the size of the wounds; also recorded: significant reduction of the size of wound
[5]; Wiskostatin topical-A gel, p=0.044
  size of wounds vs control: significant effect
[5]; Wiskostatin topical-B gel, p=0.044
  size of wounds vs control: significant effect
[5]; administered systemically (IP), every other day
  wound healing: Significantly Accelerated Wound Healing
[5]; administered topically in gel
  wound healing: Significant Effect
[6]
  growth of HaCaT cells: limited inhibitory effect on the growth and only at a high concentration
[6]; all effects on cell functions
  effective concentrations relative to those causing toxicity and growth changes: far below those that may cause toxicity and growth changes
[7]; Wiskostatin 1, 10, 100 nM, 400, 4,000, 40,000 Hz, particularly at 40,000 Hz
  adhesiveness of HaCaT cells to matrix surface: increased the adhesiveness
[7]; with HGF 40 ng/ml, Wiskostatin 1, 10, 100 nM
  HGF-induced adhesiveness of HaCaT cells: further increased the adhesiveness

## Wiskostatin
[8]
  tubule forming: strong stimulatory effect on tubule forming

## HGF: recombinant human HGF, cell migration inducer / positive control
[4]; HGF 40 ng/ml
  migration of control HaCaT cells: increased the migration of control HaCaT cells
  migration of nWASP transgene carrying HaCaT cells: some limited effect
[7]; HGF 40 ng/ml alone vs control cells
  adhesiveness of HaCaT cells: increased the adhesiveness

B1: transgene-3: anti-nWASP antisense-hammerhead ribozyme/RNA transgene, SEQ ID NO 19, cloned into pEF6/V5/His TOPO (nucleic acid, listed as Homo sapiens)
DNA: CTGCAGGTGCAGCTGTGGGAGCTCTTCTGATGAGTCCGTGAGGACGAAAAGGTGGTGGGGGAGGAGCGCCTCTTCCCCTAGCCTAGT
[4]
  cell migration of transfected HaCaT cells: dramatic increase in cell migration

B2: transgene-2: anti-nWASP antisense-hammerhead ribozyme/RNA transgene, SEQ ID NO 18, cloned into pEF6/V5/His TOPO (nucleic acid, listed as Homo sapiens)
DNA: CTGCAGACAAGCAACACCACTGCACTTCTTTCTGATGAGTCCGTGAGGACGAAACCACATACAGTTCCGATCTGCTGCATATAACTAGT
[9]
  knocking down nWASP mRNA/transcript: active in knocking down; also recorded: highly active
[4]
  cell migration of transfected HaCaT cells: dramatic increase in cell migration

B3: transgene-1: anti-nWASP antisense-hammerhead ribozyme/RNA transgene, SEQ ID NO 17, cloned into pEF6/V5/His TOPO (nucleic acid, listed as Homo sapiens)
DNA: CTGCAGGAGTTCTTTGACCACATACAGTTCCCTGATGAGTCCGTGAGGACGAAATCTGCTGCATATAACTGCACCACACTAGT
[9]
  knocking down nWASP mRNA/transcript: active in knocking down
